# Assay results: ChEMBL document CHEMBL1122412, “Synthesis of a biologically active fluorescent muramyl dipeptide congener” (1983)
# Several values for one entry are separate records, joined by “and”; a condition that tells them apart may be missing. Equal values may be shown once.
# Legend:
# Format in all cases: functional
# Cavia porcellus [1] = organism: Cavia porcellus; test: Ability of MDP to inhibit migration of cultured guinea pig peritoneal exudate macrophages at 0.01 ug/mL concentration in expt 1
# Cavia porcellus [2] = organism: Cavia porcellus; test: Ability of MDP to inhibit migration of cultured guinea pig peritoneal exudate macrophages at 0.01 ug/mL concentration in expt 2
# Cavia porcellus [3] = organism: Cavia porcellus; test: Ability of MDP to inhibit migration of cultured guinea pig peritoneal exudate macrophages at 0.01 ug/mL concentration in expt 3
# Cavia porcellus [4] = organism: Cavia porcellus; test: Ability of MDP to inhibit migration of cultured guinea pig peritoneal exudate macrophages at 0.1 ug/mL concentration in expt 1
# Cavia porcellus [5] = organism: Cavia porcellus; test: Ability of MDP to inhibit migration of cultured guinea pig peritoneal exudate macrophages at 0.1 ug/mL concentration in expt 2
# Cavia porcellus [6] = organism: Cavia porcellus; test: Ability of MDP to inhibit migration of cultured guinea pig peritoneal exudate macrophages at 0.1 ug/mL concentration in expt 3
# Cavia porcellus [7] = organism: Cavia porcellus; test: Ability of MDP to inhibit migration of cultured guinea pig peritoneal exudate macrophages at 0.1 ug/mL concentration in expt 4
# Cavia porcellus [8] = organism: Cavia porcellus; test: Ability of MDP to inhibit migration of cultured guinea pig peritoneal exudate macrophages at 0.1 ug/mL concentration in expt 5
# Cavia porcellus [9] = organism: Cavia porcellus; test: Ability of MDP to inhibit migration of cultured guinea pig peritoneal exudate macrophages at 1 ug/mL concentration in expt 1
# Cavia porcellus [10] = organism: Cavia porcellus; test: Ability of MDP to inhibit migration of cultured guinea pig peritoneal exudate macrophages at 1 ug/mL concentration in expt 2
# Cavia porcellus [11] = organism: Cavia porcellus; test: Ability of MDP to inhibit migration of cultured guinea pig peritoneal exudate macrophages at 1 ug/mL concentration in expt 3
# Cavia porcellus [12] = organism: Cavia porcellus; test: Ability of MDP to inhibit migration of cultured guinea pig peritoneal exudate macrophages at 1 ug/mL concentration in expt 4
# Cavia porcellus [13] = organism: Cavia porcellus; test: Ability of MDP to inhibit migration of cultured guinea pig peritoneal exudate macrophages at 10 ug/mL concentration in expt 4
# Cavia porcellus [14] = organism: Cavia porcellus; test: Ability of MDP to inhibit migration of cultured guinea pig peritoneal exudate macrophages at 10 ug/mL concentration in expt 5
# Cavia porcellus [15] = organism: Cavia porcellus; test: Ability of MDP to induce spreading of cultured guinea pig peritoneal exudate macrophages at 0.01 ug/mL concentration
# Cavia porcellus [16] = organism: Cavia porcellus; test: Ability of MDP to induce spreading of cultured guinea pig peritoneal exudate macrophages at 0.1 ug/mL concentration
# Cavia porcellus [17] = organism: Cavia porcellus; test: Ability of MDP to induce spreading of cultured guinea pig peritoneal exudate macrophages at 1 ug/mL concentration
# Cavia porcellus [18] = organism: Cavia porcellus; test: Ability of MDP to induce spreading of cultured guinea pig peritoneal exudate macrophages at 10 ug/mL concentration
# Cavia porcellus [19] = organism: Cavia porcellus; test: Ability of MDP to inhibit migration of cultured guinea pig peritoneal exudate macrophages at 1 ug/mL concentration in expt 5
# Cavia porcellus [20] = organism: Cavia porcellus; test: Ability of P-MDP to inhibit migration of cultured guinea pig peritoneal exudate macrophages at 1 ug/mL concentration in expt 3
# Cavia porcellus [21] = organism: Cavia porcellus; test: Ability of P-MDP to inhibit migration of cultured guinea pig peritoneal exudate macrophages at 1 ug/mL concentration in expt 4
# Cavia porcellus [22] = organism: Cavia porcellus; test: Ability of P-MDP to inhibit migration of cultured guinea pig peritoneal exudate macrophages at 10 ug/mL concentration in expt 4
# Cavia porcellus [23] = organism: Cavia porcellus; test: Ability of P-MDP to inhibit migration of cultured guinea pig peritoneal exudate macrophages at 0.01 ug/mL concentration in expt 2
# Cavia porcellus [24] = organism: Cavia porcellus; test: Ability of P-MDP to inhibit migration of cultured guinea pig peritoneal exudate macrophages at 0.01 ug/mL concentration in expt 3
# Cavia porcellus [25] = organism: Cavia porcellus; test: Ability of P-MDP to inhibit migration of cultured guinea pig peritoneal exudate macrophages at 0.1 ug/mL concentration in expt 3
# Cavia porcellus [26] = organism: Cavia porcellus; test: Ability of I-MDP to inhibit migration of cultured guinea pig peritoneal exudate macrophages at 0.1 ug/mL concentration in expt 1
# Cavia porcellus [27] = organism: Cavia porcellus; test: Ability of I-MDP to inhibit migration of cultured guinea pig peritoneal exudate macrophages at 0.1 ug/mL concentration in expt 2
# Cavia porcellus [28] = organism: Cavia porcellus; test: Ability of I-MDP to inhibit migration of cultured guinea pig peritoneal exudate macrophages at 1 ug/mL concentration in expt 1
# Cavia porcellus [29] = organism: Cavia porcellus; test: Ability of I-MDP to inhibit migration of cultured guinea pig peritoneal exudate macrophages at 1 ug/mL concentration in expt 2
# Cavia porcellus [30] = organism: Cavia porcellus; test: Ability of I-MDP to inhibit migration of cultured guinea pig peritoneal exudate macrophages at 10 ug/mL concentration in expt 2
# Cavia porcellus [31] = organism: Cavia porcellus; test: Ability of L,L-MDP to inhibit migration of cultured guinea pig peritoneal exudate macrophages at 0.01 ug/mL concentration in expt 4
# Cavia porcellus [32] = organism: Cavia porcellus; test: Ability of L,L-MDP to inhibit migration of cultured guinea pig peritoneal exudate macrophages at 0.1 ug/mL concentration in expt 4
# Cavia porcellus [33] = organism: Cavia porcellus; test: Ability of L,L-MDP to inhibit migration of cultured guinea pig peritoneal exudate macrophages at 1 ug/mL concentration in expt 4
# Cavia porcellus [34] = organism: Cavia porcellus; test: Ability of L,L-MDP to inhibit migration of cultured guinea pig peritoneal exudate macrophages at 10 ug/mL concentration in expt 5
# Cavia porcellus [35] = organism: Cavia porcellus; test: Ability of P-MDP to induce spreading of cultured guinea pig peritoneal exudate macrophages at 1 ug/mL concentration
# Cavia porcellus [36] = organism: Cavia porcellus; test: Ability of P-MDP to induce spreading of cultured guinea pig peritoneal exudate macrophages at 10 ug/mL concentration
# Cavia porcellus [37] = organism: Cavia porcellus; test: Ability of I-MDP to induce spreading of cultured guinea pig peritoneal exudate macrophages at 0.01 ug/mL concentration
# Cavia porcellus [38] = organism: Cavia porcellus; test: Ability of I-MDP to induce spreading of cultured guinea pig peritoneal exudate macrophages at 0.1 ug/mL concentration
# Cavia porcellus [39] = organism: Cavia porcellus; test: Ability of I-MDP to induce spreading of cultured guinea pig peritoneal exudate macrophages at 1 ug/mL concentration
# Cavia porcellus [40] = organism: Cavia porcellus; test: Ability of I-MDP to induce spreading of cultured guinea pig peritoneal exudate macrophages at 10 ug/mL concentration
# Cavia porcellus [41] = organism: Cavia porcellus; test: Ability of L,L-MDP to induce spreading of cultured guinea pig peritoneal exudate macrophages at 0.01 ug/mL concentration
# Cavia porcellus [42] = organism: Cavia porcellus; test: Ability of L,L-MDP to induce spreading of cultured guinea pig peritoneal exudate macrophages at 0.1 ug/mL concentration
# Cavia porcellus [43] = organism: Cavia porcellus; test: Ability of L,L-MDP to induce spreading of cultured guinea pig peritoneal exudate macrophages at 1 ug/mL concentration
# Cavia porcellus [44] = organism: Cavia porcellus; test: Ability of L,L-MDP to induce spreading of cultured guinea pig peritoneal exudate macrophages at 10 ug/mL concentration
# Cavia porcellus [45] = organism: Cavia porcellus; test: Ability of P-MDP to induce spreading of cultured guinea pig peritoneal exudate macrophages at 0.01 ug/mL concentration
# Cavia porcellus [46] = organism: Cavia porcellus; test: Ability of P-MDP to induce spreading of cultured guinea pig peritoneal exudate macrophages at 0.1 ug/mL concentration
# Cavia porcellus [47] = organism: Cavia porcellus; test: Ability of I-MDP to inhibit migration of cultured guinea pig peritoneal exudate macrophages at 0.01 ug/mL concentration in expt 1
smiles,measurement,setting,value
CC(=O)N[C@@H]1[C@@H](O[C@H](C)C(=O)N[C@@H](C)C(=O)N[C@H](CCC(=O)[O-])C(N)=O)[C@H](O)[C@@H](COc2nc(O)nc(N=C3C=CC(=C4c5ccc(O)cc5Oc5cc(O)ccc54)C(C(=O)[O-])=C3)n2)O[C@H]1O.[Na+].[Na+],Migration index,Cavia porcellus [1],73
same,Migration index,Cavia porcellus [2],84
same,Migration index,Cavia porcellus [3],62
same,Migration index,Cavia porcellus [4],102
same,Migration index,Cavia porcellus [5],52
same,Migration index,Cavia porcellus [6],27
same,Migration index,Cavia porcellus [7],51
same,Migration index,Cavia porcellus [8],74
same,Migration index,Cavia porcellus [9],63
same,Migration index,Cavia porcellus [10],60
same,Migration index,Cavia porcellus [11],18
same,Migration index,Cavia porcellus [12],49
same,Migration index,Cavia porcellus [13],53
same,Migration index,Cavia porcellus [14],74
same,Spreading,Cavia porcellus [15],45%
same,Spreading,Cavia porcellus [16],68.5%
same,Spreading,Cavia porcellus [17],74.3%
same,Spreading,Cavia porcellus [18],73.3%
same,Migration index,Cavia porcellus [19],70
CC(=O)N[C@H]1C(O)O[C@H](CO)[C@@H](O)[C@@H]1O[C@H](C)C(=O)N[C@@H](C)C(=O)N[C@H](CCC(=O)O)C(N)=O (some centres not stated) [MURAMYL DIPEPTIDE],Migration index,Cavia porcellus [20],17 and 34
same,Migration index,Cavia porcellus [21],62
same,Migration index,Cavia porcellus [22],52 and 63
same,Migration index,Cavia porcellus [23],63
same,Migration index,Cavia porcellus [24],12
same,Migration index,Cavia porcellus [25],52 and 34 and 26
same,Migration index,Cavia porcellus [26],68 and 88
same,Migration index,Cavia porcellus [27],64 and 68
same,Migration index,Cavia porcellus [28],70 and 114
same,Migration index,Cavia porcellus [29],61 and 64
same,Migration index,Cavia porcellus [30],64
same,Migration index,Cavia porcellus [31],54
same,Migration index,Cavia porcellus [32],58
same,Migration index,Cavia porcellus [33],52
same,Migration index,Cavia porcellus [34],65
same,Spreading,Cavia porcellus [35],75.5%
same,Spreading,Cavia porcellus [36],79%
same,Spreading,Cavia porcellus [37],50%
same,Spreading,Cavia porcellus [38],72.5%
same,Spreading,Cavia porcellus [39],73%
same,Spreading,Cavia porcellus [40],80%
same,Spreading,Cavia porcellus [41],48%
same,Spreading,Cavia porcellus [42],56%
same,Spreading,Cavia porcellus [43],51.5%
same,Spreading,Cavia porcellus [44],76%
same,Spreading,Cavia porcellus [45],62.5%
same,Spreading,Cavia porcellus [46],80%
same,Migration index,Cavia porcellus [47],119 and 92 and 108
